From article PMC9973354 (mBio, 2022)
Starred links: 1 amine or outer side, 2 acyl side, 3 side chain; linkers in the order of their positions; H or OH if unused. Positions of bridges follow the written chain, without caps; N, C: chain ends. Non-standard residues stand in square brackets, D forms with d. Residues, ends and D or L forms follow the SMILES beside them. ξ: configuration not given here. X1 = O=C([C@@H]1CCN=C2C(N[*:1])=Cc3cc(O)c(O)cc3N21)[*:2]; ξOrn(N(OH)CHO) = NC(CCCN(O)C=O)C(=O)O; Suc = O=C(CCC(=O)[*:2])[*:1]; ξK = NCCCCC(N)C(=O)O; ξS = NC(CO)C(=O)O

Columns and labels:
[1] = biological target: T1, FpvB R648C (Pseudomonas aeruginosa, UniProt A0A0H2ZFZ5, R648C); test: Whole-cell fluorescence quenching, FpvB R648C in ΔfpvA ΔfpvB; type: binding
T1 sequence (A0A0H2ZFZ5 23-802 R648C): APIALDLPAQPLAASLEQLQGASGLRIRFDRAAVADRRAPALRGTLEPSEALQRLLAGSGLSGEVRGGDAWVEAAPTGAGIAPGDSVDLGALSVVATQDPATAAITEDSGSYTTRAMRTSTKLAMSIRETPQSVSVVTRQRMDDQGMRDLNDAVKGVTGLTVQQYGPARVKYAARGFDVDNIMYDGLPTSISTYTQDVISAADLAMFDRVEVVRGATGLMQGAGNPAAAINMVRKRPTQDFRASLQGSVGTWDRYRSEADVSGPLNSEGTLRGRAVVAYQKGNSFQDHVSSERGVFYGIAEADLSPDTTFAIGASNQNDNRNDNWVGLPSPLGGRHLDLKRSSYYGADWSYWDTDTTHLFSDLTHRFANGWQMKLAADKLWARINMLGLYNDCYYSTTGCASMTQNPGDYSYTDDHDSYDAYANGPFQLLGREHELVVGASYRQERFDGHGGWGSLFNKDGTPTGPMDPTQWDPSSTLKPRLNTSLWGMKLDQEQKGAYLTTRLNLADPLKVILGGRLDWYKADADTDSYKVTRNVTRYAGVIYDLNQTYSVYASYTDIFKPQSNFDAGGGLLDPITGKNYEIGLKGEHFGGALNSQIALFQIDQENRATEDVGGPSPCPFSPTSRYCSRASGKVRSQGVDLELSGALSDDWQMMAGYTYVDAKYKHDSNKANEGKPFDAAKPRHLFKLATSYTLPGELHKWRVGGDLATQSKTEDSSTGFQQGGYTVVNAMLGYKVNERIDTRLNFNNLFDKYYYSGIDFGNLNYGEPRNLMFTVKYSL
Source text: To determine the affinity of the siderophores for FpvA and FpvB, we adapted the method from Chakravorty et al. to generate a whole-cell sensor where fluorescence quenching serves as an indicator of ligand interaction ([31]). Siderophore binding triggers conformational changes at the extracellular loops of the TBDT (Fig. 3A). Cys substitutions were introduced at the loops and labeled with a fluorescent maleimide dye. When a ligand binds the transporter, the loops fold inward toward the lumen of the barrel, and changes in the chemical environment surrounding the fluorophore lead to quenching ([31], [32]). Fluorescence recovery occurs once the siderophore is taken up and the loop returns to its original conformation.
Cells were cultured overnight in LB with carbenicillin (200 μg/mL) at 37°C with shaking at 200 rpm. Cells were subcultured (1:200 dilution) in 10:90 plus 2% arabinose for 4 h without carbenicillin at 37°C with shaking at 200 rpm. […] Excess dye was quenched with 1 mM dithiothreitol (DTT) (Sigma) to stop the reaction. Cells were washed 3× with PBS. For fluorescence recovery assays, cells were incubated with 1× PBS plus 0.4% glucose at 37°C with shaking at 200 rpm. Glucose was prepared as a 20% stock (wt/vol) in 1× PBS and filter sterilized. Cells were spun down and washed 3× with 1× PBS and resuspended in 1× PBS for quenching assays and 1× PBS plus 0.4% glucose for fluorescence recovery assays.
For fluorescence quenching and recovery assays, cells were diluted to an OD600 of 0.1 for both types of assays, and 148 μL was added into wells of a 96-well black plate (Corning). Fluorescence was recorded for 5 min at 1-min intervals at 37°C (BioTek Neo; excitation, 494 nm; emission, 520 nm). After 5 min, 2 μL of each serial dilution for ferrioxamine-Fe^3+, ferrichrome-Fe^3+, and pyoverdine-Fe^3+ or DMSO for vehicle controls was added to each well. Fluorescence was recorded immediately for quenching assays and for 1 h at 1-min intervals for fluorescence recovery assays. Background fluorescence was subtracted from all fluorescence readings and 1-F/F0 was used to calculate the degree of quenching, where F0 is the initial fluorescence. Kd was calculated using GraphPad Prism using a one-site specific binding model or a two-site model. For fluorescence recovery assays, background was subtracted from all fluorescence readings and F/F0 expressed as a percent of control was plotted versus time.

[2] = test system: PA14 ΔfpvA ΔfpvB ΔfiuA ΔfoxA quadruple mutant; test: Growth phenotypes of deletion mutants, quadruple mutant; type: cell-based, Pseudomonas aeruginosa; conditions: 64 μg/mL DSX, 10 μg/mL siderophores, 10:90
Source text: PA14, ΔfpvA, ΔfpvB, and ΔfpvA ΔfpvB strains treated with TS (A) and DSX (B) in 10:90. Green indicates growth, and white indicates no growth. Growth is expressed as percent of control. The PA14 ΔfpvA ΔfpvB strain complemented with pHERD20T, fpvA, or fpvB treated with TS (C) and DSX (D) in 10:90. […] All experiments are averaged from three independent biological replicates. Blue indicates growth and white indicates no growth. (H) Summary of growth phenotypes of WT PA14 and combinations of single, double, triple, and quadruple deletion mutants in fpvA, fpvB, fiuA, and foxA. […] Green indicates growth, whereas no growth is indicated in white. […] Representative plates are shown.
If there were no transporters for a particular siderophore, the mutant would fail to grow due to iron restriction.

[3] = test system: PA14 ΔfpvA ΔfpvB ΔfiuA ΔfoxA pHERD20T-fpvB W347V; test: Growth of quadruple mutant expressing FpvB W347V; type: cell-based, Pseudomonas aeruginosa; conditions: FpvB W347V (expressed at 25% of WT), 10:90 + 2% arabinose
Protocol: Site-directed mutagenesis was used to confirm the docking predictions and to define the molecular determinants for ligand uptake through FpvB (Fig. 4C). We generated 17 single amino acid substitutions in FpvB and expressed each of them in trans in the quadruple ΔfpvA ΔfpvB ΔfiuA ΔfoxA mutant. Their ability to complement growth of the mutant in the presence of ferrichrome and ferrioxamine B and to restore TS susceptibility was assessed. […] The mutant transporters were tagged with a C-terminal FLAG tag to evaluate expression levels. FLAG-tagged FpvB mutants had WT levels of expression except for Y216T and W347V, which were expressed at 140% and 25% of WT, respectively.
The ΔfpvA ΔfpvB ΔfiuA ΔfoxA mutant was complemented with WT fpvA, fpvB, fiuA, and foxA in trans as controls (Fig. 4E).
MIC assays were conducted as previously described ([13], [14]). Overnight cultures were grown in LB from a glycerol stock at 37°C with shaking (200 rpm). Subcultures in 10:90 (1:100 dilution) were cultured for 4 h. Cells were adjusted to an optical density at 600 nm (OD600) of 0.1/500 in 10:90. All compounds were serially diluted 2-fold in dimethyl sulfoxide (DMSO) or H2O at 75× the final concentration. […] The next day, the OD600 was determined with a plate reader (Thermo Scientific) and normalized to percent of growth of the vehicle control after subtracting the OD600 from blank media.

SMILES	Kd for FpvB relative to ferrichrome ([1]; greater than ferrichrome)	Kd for FpvB relative to ferrioxamine B ([1]; greater than ferrioxamine B)	growth in the presence of compound [2]	growth in the presence of siderophore [3]
NCCCCC(NC(=O)C(CO)NC(=O)[C@@H]1CCN=C2C(NC(=O)CCC(=O)O)=Cc3cc(O)c(O)cc3N21)C(=O)NCC(=O)NC(CCCN(O)C=O)C(=O)NC1CCCCNC(=O)C(CO)NC(=O)C(CCCN(O)C=O)NC1=O (stereo partly shown) [pyoverdine] (Suc-[X1][ξS][ξK]G[ξOrn(N(OH)CHO)][ξK][ξOrn(N(OH)CHO)][ξS]; lactam 6-C)	200 fold	20 fold	–	–
CC(=O)N(O)CCCCCNC(=O)CCC(=O)N(O)CCCCCNC(=O)CCC(=O)N(O)CCCCCN [ferrioxamine B]	–	–	failed to grow	prevented growth
